Data taken from ChEMBL document CHEMBL1201862, “PubChem BioAssay data set” (2004).
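Test compounds were applied to cells in 96-well plates for 48 hours at 5 doses. At the GI50, growth is halved.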 Active and inactive are the calls of the source. Rule as the data show it: active = GI50 up to about 1.1 µM and inactive = higher. *1 amine or outer side, *2 acyl side, *3 side chain or, on linkers, in order; H or OH if unused. Where a SMILES comes first, the peptide text is derived from it. The star is where a group is joined. γGlu = O=C(O)[CH](CCC(=O)[*:2])N[*:1]; NHOH = ON*

Columns and labels:
Assay in all cases: NCI anticancer screen, dose series, 48 h
MDA-MB-231 = test system: MDA-MB-231
T47D = test system: T47D
K562 = test system: K562
SK-OV-3 = test system: SK-OV-3
UACC-257 = test system: UACC-257
NCI/ADR-RES = test system: NCI/ADR-RES
SR = test system: SR
SK-MEL-2 = test system: SK-MEL-2
SK-MEL-5 = test system: SK-MEL-5
MCF7 = test system: MCF7
A549 = test system: A549
OVCAR-4 = test system: OVCAR-4
SF-268 = test system: SF-268
NCI-H460 = test system: NCI-H460
SNB-75 = test system: SNB-75
TK-10 = test system: TK-10
SF-539 = test system: SF-539
RPMI-8226 = test system: RPMI-8226
A498 = test system: A498
HOP-92 = test system: HOP-92

Row | SMILES | GI50 (MDA-MB-231) | GI50 (T47D) | GI50 (K562) | GI50 (SK-OV-3) | GI50 (UACC-257) | GI50 (NCI/ADR-RES) | GI50 (SR) | GI50 (SK-MEL-2) | GI50 (SK-MEL-5) | GI50 (MCF7) | GI50 (A549) | GI50 (OVCAR-4) | GI50 (SF-268) | GI50 (NCI-H460) | GI50 (SNB-75) | GI50 (TK-10) | GI50 (SF-539) | GI50 (RPMI-8226) | GI50 (A498) | GI50 (HOP-92)
1 | Cc1c2cnccc2c(C)c2c1[nH]c1ccc(O)cc12 | 1.57 µM (inactive) | 5.92 µM (inactive) | 3.17 µM (inactive) | 6.58 µM (inactive) | 2.73 µM (inactive) | 0.693 µM (active) | 0.31 µM (active) | 6.25 µM (inactive) | > 10 µM (inactive) | 0.914 µM (active) | 1.52 µM (inactive) | 2.33 µM (inactive) | 1.01 µM (active) | 0.458 µM (active) | 1.87 µM (inactive) | 3.91 µM (inactive) | 1.07 µM (active) | 1.59 µM (inactive) | – | –
2 | O=C1Oc2ccccc2N/C1=C/C(=O)c1ccc(Cl)cc1 | > 100 µM (inactive) | 47.5 µM (inactive) | 37.1 µM (inactive) | > 100 µM (inactive) | > 100 µM (inactive) | 39 µM (inactive) | 39.4 µM (inactive) | > 100 µM (inactive) | 38.6 µM (inactive) | 41.7 µM (inactive) | 60.3 µM (inactive) | > 100 µM (inactive) | > 100 µM (inactive) | > 100 µM (inactive) | > 100 µM (inactive) | > 100 µM (inactive) | 46.9 µM (inactive) | – | > 100 µM (inactive) | –
3 | CC(=O)OCC1OC(OC2CC3C(C)(C)C(OC(C)=O)CC[C@]3(C)C3CCC45CC4(CCC5[C@@H](C)C[C@H](O)C(O)C(C)(C)O)[C@]23C)C(O)C(O)C1O (some centres undefined) | > 10 µM (inactive) | > 10 µM (inactive) | 9.12 µM (inactive) | > 10 µM (inactive) | > 10 µM (inactive) | > 10 µM (inactive) | – | 5.65 µM (inactive) | > 10 µM (inactive) | 6.61 µM (inactive) | > 10 µM (inactive) | > 10 µM (inactive) | > 10 µM (inactive) | > 10 µM (inactive) | > 10 µM (inactive) | > 10 µM (inactive) | > 10 µM (inactive) | 5.18 µM (inactive) | > 10 µM (inactive) | 9.44 µM (inactive)
4 | CC(=O)NC1c2ccccc2C(C)(C)C12CCC1(CC2)OCCO1 (centres undefined) | > 100 µM (inactive) | > 100 µM (inactive) | > 100 µM (inactive) | > 10 µM (inactive) | > 100 µM (inactive) | > 100 µM (inactive) | > 100 µM (inactive) | > 100 µM (inactive) | > 100 µM (inactive) | > 100 µM (inactive) | > 100 µM (inactive) | > 100 µM (inactive) | > 100 µM (inactive) | > 10 µM (inactive) | > 100 µM (inactive) | > 100 µM (inactive) | > 100 µM (inactive) | > 100 µM (inactive) | – | –
5 | C=CC[C@@]1(C(=O)OC)[C@H](Sc2ccccc2)C1(C)C | 69 µM (inactive) | > 100 µM (inactive) | – | > 100 µM (inactive) | 34 µM (inactive) | 44.9 µM (inactive) | – | 24.2 µM (inactive) | 18.7 µM (inactive) | 25.9 µM (inactive) | 32.5 µM (inactive) | 43.7 µM (inactive) | 85.5 µM (inactive) | 66.5 µM (inactive) | 21.8 µM (inactive) | > 100 µM (inactive) | 35.3 µM (inactive) | 10.7 µM (inactive) | 31.3 µM (inactive) | 13.8 µM (inactive)
6 | COc1cccc(NC(=O)CC(=O)N2N=C(C)C(/N=N/c3ccc(C(=O)O)cc3)C2=O)c1 (centres undefined) | > 100 µM (inactive) | > 100 µM (inactive) | > 100 µM (inactive) | – | > 100 µM (inactive) | > 100 µM (inactive) | > 100 µM (inactive) | > 100 µM (inactive) | > 100 µM (inactive) | > 100 µM (inactive) | > 100 µM (inactive) | > 100 µM (inactive) | > 100 µM (inactive) | – | 16.6 µM (inactive) | > 100 µM (inactive) | > 100 µM (inactive) | > 100 µM (inactive) | – | –
7 | CC(C)(C)c1cc(C(CO)OCCOCCO)cc(C(C)(C)C)c1O (centres undefined) | > 100 µM (inactive) | > 100 µM (inactive) | > 100 µM (inactive) | > 100 µM (inactive) | > 100 µM (inactive) | > 100 µM (inactive) | – | > 100 µM (inactive) | > 100 µM (inactive) | > 100 µM (inactive) | > 100 µM (inactive) | > 100 µM (inactive) | > 100 µM (inactive) | – | > 100 µM (inactive) | > 100 µM (inactive) | > 100 µM (inactive) | > 100 µM (inactive) | > 100 µM (inactive) | > 100 µM (inactive)
8 | NC(CCC(=O)NC(CCC(=O)NO)C(=O)NCC(=O)O)C(=O)O (centres undefined) (γGlu-Glu(NHOH)-Gly-OH; configuration not given here) | > 100 µM (inactive) | > 100 µM (inactive) | > 100 µM (inactive) | > 100 µM (inactive) | > 100 µM (inactive) | > 100 µM (inactive) | – | > 100 µM (inactive) | > 100 µM (inactive) | > 100 µM (inactive) | > 100 µM (inactive) | > 100 µM (inactive) | > 100 µM (inactive) | > 100 µM (inactive) | > 100 µM (inactive) | > 100 µM (inactive) | > 100 µM (inactive) | > 100 µM (inactive) | > 100 µM (inactive) | > 100 µM (inactive)
9 | C[Si](C)(C)C#CCOC=C1CC1 | > 100 µM (inactive) | > 100 µM (inactive) | > 100 µM (inactive) | > 100 µM (inactive) | > 100 µM (inactive) | > 100 µM (inactive) | 52.5 µM (inactive) | > 100 µM (inactive) | > 100 µM (inactive) | > 100 µM (inactive) | > 100 µM (inactive) | > 100 µM (inactive) | > 100 µM (inactive) | > 100 µM (inactive) | > 100 µM (inactive) | > 100 µM (inactive) | > 100 µM (inactive) | – | – | –
10 | Cc1nnc(N)s/c1=N/O | > 100 µM (inactive) | > 100 µM (inactive) | > 100 µM (inactive) | > 100 µM (inactive) | 56.9 µM (inactive) | > 100 µM (inactive) | – | > 100 µM (inactive) | 56.9 µM (inactive) | > 100 µM (inactive) | > 100 µM (inactive) | > 100 µM (inactive) | > 100 µM (inactive) | > 100 µM (inactive) | > 100 µM (inactive) | > 100 µM (inactive) | > 100 µM (inactive) | > 100 µM (inactive) | > 100 µM (inactive) | > 100 µM (inactive)
11 | COc1ccc(C(=O)CCN(C)C)c2ccccc12 | 19.1 µM (inactive) | 11.3 µM (inactive) | 29.7 µM (inactive) | > 100 µM (inactive) | > 40.9 µM (inactive) | 35.9 µM (inactive) | – | 19.5 µM (inactive) | > 56.8 µM (inactive) | 4.63 µM (inactive) | > 58.2 µM (inactive) | 24.3 µM (inactive) | 21.9 µM (inactive) | > 59.8 µM (inactive) | 23 µM (inactive) | > 38.3 µM (inactive) | 14.9 µM (inactive) | 0.504 µM (active) | 27.4 µM (inactive) | 19.5 µM (inactive)
